The source made the active and inactive calls. The rule behind the calls is not given here.
How the values were obtained:
Cavia porcellus = organism: Cavia porcellus; assay: Antagonist activity at histamine receptor in guinea pig ileum assessed as reduction in histamine-induced contractions up to 0.1 mM; assay type: tissue-based
Rattus norvegicus [1] = assay: Antiallergic activity in iv dosed rat assessed as inhibition of antigen-induced passive cutaneous anaphylaxis; assay type: functional
Rattus norvegicus [2] = assay: Antiallergic activity in po dosed rat assessed as inhibition of antigen-induced passive cutaneous anaphylaxis; assay type: functional
Rattus norvegicus [3] = assay: Antiallergic activity in po dosed rat assessed as inhibition of ovalbumin-induced passive cutaneous anaphylaxis pretreated for 10 to 15 mins followed by ovalbumin challenge; assay type: functional; settings: for ED50: read-out: ID50 (the source's name)
Rattus norvegicus [4] = assay: Antiallergic activity in rat assessed as inhibition of ovalbumin-induced passive cutaneous anaphylaxis at 0.5 mg/kg, iv dosed along with ovalbumin challenge relative to control; assay type: functional
Rattus norvegicus [5] = assay: Antiallergic activity in iv dosed rat assessed as inhibition of ovalbumin-induced passive cutaneous anaphylaxis dosed along with ovalbumin challenge; assay type: functional; settings: read-out: ID50 (the source's name)
Rattus norvegicus [6] = assay: Antiallergic activity in rat assessed as inhibition of ovalbumin-induced passive cutaneous anaphylaxis at 5 mg/kg, iv dosed along with ovalbumin challenge relative to control; assay type: functional

Structure (SMILES)	inhibition in vivo at 0.5 mg/kg (Rattus norvegicus [4])	ED50 (Rattus norvegicus [5])	inhibition (Rattus norvegicus [4])	further results
O=C(O)c1ccc2nc3cc4ccccc4cc3c(=O)n2c1	100%	0.1 mg/kg	–	inhibition (Cavia porcellus): inactive; ED50 (Rattus norvegicus [1]): 0.015 mg/kg; ED50 (Rattus norvegicus [2]): < 0.1 mg/kg; ID50 (Rattus norvegicus [3]): inactive
O=C1c2ccccc2S(=O)(=O)c2cc(-c3nn[nH]n3)ccc21 [DOXANTRAZOLE]	–	1.5 mg/kg	–	ED50 (Rattus norvegicus [3]): 5 mg/kg
O=C(O)c1ccn2c(=O)c3ccccc3nc2c1	21%	–	–	–
O=C(O)c1ccc2nc3c(c(=O)n2c1)CCCC3	–	–	inactive	–
Cc1cc(=O)n2cc(C(=O)O)ccc2n1	–	–	inactive	–
O=C([O-])c1cc(=O)c2c(OCC(O)COc3cccc4oc(C(=O)[O-])cc(=O)c34)cccc2o1.[Na+].[Na+] [CROMOLYN SODIUM]	–	1 mg/kg	–	ID50 (Rattus norvegicus [3]): inactive
Cl.O=C(O)c1ccc2nc3ccccc3c(=O)n2c1	45%	0.5 mg/kg	–	inhibition (Cavia porcellus): inactive; ED50 (Rattus norvegicus [3]): 2.5 mg/kg
O=C(O)c1cccn2c(=O)c3cc4ccccc4cc3nc12	–	–	inactive	–
O=C(O)c1cccn2c(=O)c3ccccc3nc12	–	–	inactive	–
O=C(O)c1ccc2nc(O)cc(=O)n2c1	–	–	–	inhibition in vivo at 5 mg/kg (Rattus norvegicus [6]): 26%

Reference: ChEMBL document CHEMBL3227979, “11-Oxo-11H-pyrido[2,1-b]quinazoline-8-carboxylic acid, an orally active antiallergy agent” (1979)
